Results published in patent publication US20250011881A1, “MYC-HSF1 DUAL AMPLIFICATION AS A BIOMARKER FOR CANCER TREATMENT” (The Trustees of Indiana University, priority 2023, published 2025).
Values joined by “and” are separate entries in the source; they are usually repeats but may differ in a detail not shown here. Equal values may be shown once. Where a name gives a salt, the structure may show the parent alone.

Tested on: ovarian cancer cells with (OVCAR8, OVCAR4) or without (OVSAHO, CAOV3) MYC-HSF1 amplification
Assay: Epigenetic inhibitor drug screen, cell viability (Cell Titer Blue)
Format: cell-based
Settings: not given

SMILES | Non Amp - AMP (POC) 10 uM [POC]
C=C1C(=O)O[C@@H](CCC)[C@@H]1C(=O)O [Butyrolacetone 3] | 9.966
O=C(Nc1ccc(CN2CCOCC2)cc1)c1ccc(-c2cccc(Cl)c2)o1 [CID 2011756] | 21.79
CC(C)(O)/C=C/C(=O)[C@](C)(O)[C@H]1[C@H](O)C[C@@]2(C)[C@@H]3CC=C4[C@@H](C=C(O)C(=O)C4(C)C)[C@]3(C)C(=O)C[C@]12C [Cucurbitacin I] | 0.02387
CCCCCCCCCCCCC/C=C/[C@@H](O)[C@@H](N)CO [D-erythro-Sphingosine (synthetic), D-erythro-Sphingosine] | 2.713
O=C(O)CNC(=O)C1C(=O)N(C2CCCCC2)C(=O)N(C2CCCCC2)C1=O [Daprodustat(GSK1278863), Daprodustat] | 0.9715

Same assay, conditions: 10 uM, 48 hrs; average relative cell viability (vs 1% DMSO) of non-amplified cells (OVSAHO, CAOV3) minus that of MYC-HSF1 amplified cells (OVCAR8, OVCAR4); positive = greater response in amplified cells

SMILES | Non Amp - AMP (POC) 10 uM [POC]
O=C(NO)c1cccc(C(=O)NCCc2ccccc2)c1 [BRD73954] | 10.33
CCOC(=O)c1ccc(NC(=O)O[C@H]2[C@H](OC(=O)Nc3ccc4c(c3)OCO4)[C@@H](OC(=O)Nc3ccc4c(c3)OCO4)[C@@H](OC)O[C@@H]2CO)cc1 [BRD 7552] | −0.1565
CC1(C)C(=O)N=C2C1=C(O)C(=O)c1ccccc12 [BVT 948] | 22.87
CCN(CCO)CCCOc1ccc2c(Nc3cc(CC(=O)Nc4cccc(F)c4)[nH]n3)ncnc2c1 [Barasertib (AZD1152-HQPA), Barasertib] | −16.49
COC(=O)[C@]12CCC(C)(C)C[C@H]1[C@H]1C(=O)C=C3[C@@]4(C)C=C(C#N)C(=O)C(C)(C)[C@@H]4CC[C@@]3(C)[C@]1(C)CC2 [Bardoxolone methyl] | 6.087
CCS(=O)(=O)N1CC(CC#N)(n2cc(-c3ncnc4[nH]ccc34)cn2)C1 [Baricitinib (LY3009104, INCB028050), Baricitinib] | −2.641
CCS(=O)(=O)N1CC(CC#N)(n2cc(-c3ncnc4[nH]ccc34)cn2)C1.O=P(O)(O)O [Baricitirib phosphate] | 7.373
O=C(/C=C/c1cccc(S(=O)(=O)Nc2ccccc2)c1)NO [Belinostat (PXD101), Belinostat] | 12.55
NC(=O)c1ccccc1 [Benzamide] | −5.576
CN(C)c1ccc(C(=O)NCCCCCC(=O)NO)cc1 [CAY10398] | 48.61
COCCCn1c(N)c(C(=O)NC2CCCC2)c2nc3ccccc3nc21 [CAY10591] | 11.91
O=C(Cc1ccccc1)Nc1ccc2oc(-c3ccc(Cl)cc3Cl)nc2c1 [CAY10722] | −11.2
O=C(/C=C/c1cccc(C(=O)NO)c1)NO [CBHA] | 37.53
CN(C)c1ccc(-c2nc3ncc(Cl)c(N4CCN(CC(=O)Nc5nccs5)CC4)c3[nH]2)cc1 [CCT129202] | 2.662
Cc1cc(CN2CCN(c3c(Br)cnc4nc(-c5ccc(N6CCN(C)CC6)cc5)[nH]c34)CC2)no1 [CCT137690] | 9.076
CN1CCN(c2cccc(Nc3nc4c(-c5ccc(S(C)(=O)=O)cc5)cccn4n3)c2)CC1 [CEP-33779] | 15.1
Cl.NC(=O)[C@H](CCCN=C(N)CCl)NC(=O)c1ccccc1 [CI-Amidine (hydrochloride), CI-Amidine] | 5.451
CCS(=O)(=O)N1CCC([C@@H](C)n2c(C)c(C(=O)NCc3c(OC)cc(C)[nH]c3=O)c3ccccc32)CC1 [CPI-169] | 3.906
C[C@@H]1CC(=O)Nc2cccc(-c3ccc4c(c3)c(-c3cnn(C)c3)nn4C)c2N1 [CPI-637] | −2.546
Cl.Clc1ccc(-c2csc(NN=C3CCCC3)n2)cc1 [CPTH2 (hydrochloride)] | 6.251
Br.CC1CC/C(=N\Nc2nc(-c3ccc(Cl)cc3)cs2)C1 (stereo not shown) [CPTH6 (hydrobromide)] | 13.3

SMILES | Non Amp - AMP (POC) 10 uM [POC]
C#Cc1cccc(Nc2ncnc3cc(OC)c(OCCCCCCC(=O)NO)cc23)c1 [CUDC-101] | 28.26
COc1ccc(-c2nc(N3CCOCC3)c3sc(CN(C)c4ncc(C(=O)NO)cn4)cc3n2)cn1 [CUDC-907] | 8.159
CN1CCCN(C(=O)c2cccc(-c3ccc(/C=C4/C(=O)Nc5ccc(Cl)cc54)o3)c2)CC1 [CX-6258] | −7.528
Cc1nn(C)cc1CN1CCC(c2ccc(C(=O)Nc3ccccc3N)cc2)CC1 [CXD101] | 83.35
Cc1nc(N)sc1-c1ccnc(Nc2ccc(N3CCOCC3)cc2)n1 [CYC116] | 8.383
N#CCNC(=O)c1ccc(-c2ccnc(Nc3ccc(N4CCOCC4)cc3)n2)cc1 [CYT387] | −4.087
N.N.O=C([O-])C1(C(=O)[O-])CCC1.[Pt+2] [Carboplatin] | −13.46
Cn1cc(C(=O)Nc2ccc3c(c2)OCCO3)c2ccccc2c1=O [CeMMEC1] | −1.809
CCS(=O)(=O)N1CCN(c2ccc(Nc3ncc(C(N)=O)c(NC4CC4)n3)cc2)CC1 [Cerdulatinib (PRT062070), Cerdulatinib] | −1.406
Nc1cc(F)ccc1NC(=O)c1ccc(CNC(=O)/C=C/c2cccnc2)cc1 [Chidamide] | 33.85
O=c1ccc2ccccc2o1 [Coumarin] | 5.809
C=C1C[C@@]2(O)O[C@@]3(C[C@H]2C(C)C)[C@@H](C)CC[C@@H]13 [Curcumol] | −1.726
CN1CCC(=C2c3ccccc3C=Cc3ccccc32)CC1 [Cyproheptadine (hydrochloride hydrate), Cyproheptadine] | 6.958
Nc1ccn([C@@H]2O[C@H](CO)[C@@H](O)[C@@H]2O)c(=O)n1 [Cytarabine] | 1.9
COC(=O)CNC(=O)C(=O)OC [DMOG] | −8.654
CO[C@@H](C(=O)N1Cc2n[nH]c(NC(=O)c3ccc(N4CCN(C)CC4)cc3)c2C1)c1ccccc1 [Danusertib (PHA-739358), Danusertib] | −1.72
CCCCCCCCCC(=O)N[C@@H](Cc1c[nH]c2ccccc12)C(=O)N[C@H](CC(N)=O)C(=O)N[C@@H](CC(=O)O)C(=O)N[C@@H]1C(=O)NCC(=O)N[C@@H](CCCN)C(=O)N[C@@H](CC(=O)O)C(=O)N[C@H](C)C(=O)N[C@@H](CC(=O)O)C(=O)NCC(=O)N[C@H](CO)C(=O)N[C@@H]([C@H](C)CC(=O)O)C(=O)N[C@@H](CC(=O)c2ccccc2N)C(=O)O[C@@H]1C [Daptomycin] | 3.207
CC[C@@](C)(Nc1ccnc(-c2c[nH]c3ncccc23)n1)C(=O)NCC(F)(F)F [Decernotinib(VX-509), Decernotinib] | 7.322
Oc1cc(O)c2cc(O)c(-c3cc(O)c(O)c(O)c3)[o+]c2c1 [Delphinidin (chloride), Delphinidin] | 9.89
C[C@@H]1CC[C@@]2(OC1)O[C@H]1C[C@H]3[C@@H]4CC=C5C[C@@H](O)CC[C@]5(C)[C@H]4CC[C@]3(C)[C@H]1[C@@H]2C [Diosgenin] | 5.646
COc1cc2c(cc1OC)C(=O)C(CC1CCN(Cc3ccccc3)CC1)C2 (stereo not shown) [Donepezil HCl] | −4.516

Same assay, conditions: 10 uM, 48 hrs; average relative cell viability (vs 1% DMSO) of non-amplified cells (OVSAHO, CAOV3) minus that of MYC-HSF1 amplified cells (OVCAR8, OVCAR4); positive = greater response in amplified cells; 10 µM

SMILES | Non Amp - AMP (POC) 10 uM
CCOC(=O)Nc1cc(-c2ccc(C)c(NS(C)(=O)=O)c2)nn2c(C)nnc12 [Bromosporine] | 15.35 POC and 21.43 POC
Nc1ccc(S(=O)(=O)NCCc2ccccc2)cc1 [C-7280948] | 13.45 POC
CC(C)(C)OC(=O)Nc1ccc(-c2cc(C(=O)NCCCCCCC(=O)NO)no2)cc1 [CAY10603] | 43.89 POC and 29.05 POC
CCOC(=O)NCCCC(=O)NCCc1ccccc1 [CAY10683, Santacruzamate A] | 18.98 POC
CC(=O)Nc1ccc(C(=O)Nc2ccccc2N)cc1 [CI-994, Tacedinaline] | 25.18 POC
COc1ccc2c(c[n+](C)c3c4cc5c(cc4ccc23)OCO5)c1OC [Chelerythrine Chloride] | −21.5 POC
COc1ccc2c(c[n+](C)c3c4cc5c(cc4ccc23)OCO5)c1OC [Chelerythrine] | −18.62 POC
CCCC(CCC)C(=O)O [Divalproex Sodium] | −6.451 POC

Same assay, conditions: 10 uM, 48 hrs; average relative cell viability (vs 1% DMSO) of non-amplified cells (OVSAHO, CAOV3) minus that of MYC-HSF1 amplified cells (OVCAR8, OVCAR4); positive = greater response in amplified cells; listed as C7280948, 10 µM

SMILES | Non Amp - AMP (POC) 10 uM [POC]
Nc1ccc(S(=O)(=O)NCCc2ccccc2)cc1 [C-7280948] | 0.5735

Same assay, conditions: 10 uM, 48 hrs; average relative cell viability (vs 1% DMSO) of non-amplified cells (OVSAHO, CAOV3) minus that of MYC-HSF1 amplified cells (OVCAR8, OVCAR4); positive = greater response in amplified cells; listed as CI994 (Tacedinaline), 10 µM

SMILES | Non Amp - AMP (POC) 10 uM [POC]
CC(=O)Nc1ccc(C(=O)Nc2ccccc2N)cc1 [CI-994, Tacedinaline] | 16.47

Same assay, conditions: 10 uM, 48 hrs; average relative cell viability (vs 1% DMSO) of non-amplified cells (OVSAHO, CAOV3) minus that of MYC-HSF1 amplified cells (OVCAR8, OVCAR4); positive = greater response in amplified cells; listed as Santacruzamate A (CAY10683), 10 µM

SMILES | Non Amp - AMP (POC) 10 uM [POC]
CCOC(=O)NCCCC(=O)NCCc1ccccc1 [CAY10683, Santacruzamate A] | −0.9653
